Source: patent publication US10266548B2, “Substituted benzylindazoles for use as Bub1 kinase inhibitors in the treatment of hyperproliferative diseases” (Bayer Intellectual Property GmbH, priority 2011, dated 2019)

Target: catalytic domain of human Bub1 (amino acids 704-1085) (Homo sapiens (Human), UniProt O43683)
Assay: Bub1 kinase assay (TR-FRET)
Type: biochemical
Settings: 10 μM ATP, 1 μM peptide substrate; read-out: Biological Assay 1: Bub1 kinase assay median IC50
Procedure: To this end, 100-fold concentrated compound solutions (in DMSO) were previously prepared by serial dilution (1:3.4) of 2 mM stocks in a clear low volume 384-well source microtiter plate (Greiner Bio-One, Frickenhausen, Germany), from which 50 nl of compounds were transferred into a black low volume test microtiter plate from the same supplier. […] The resulting mixture (5 μl final volume) was incubated at 22° C. during 60 min., and the reaction was stopped by the addition of 5 μl of an aqueous EDTA-solution (50 mM EDTA, in 100 mM HEPES pH 7.5 and 0.2% (w/v) bovine serum albumin) which also contained the TR-FRET detection reagents (0.2 μM streptavidin-XL665 [Cisbio Bioassays, Codolet, France] and 1 nM anti-phosho-Serine antibody [Merck Millipore, cat. #35-001] and 0.4 nM LANCE EU-W1024 labeled anti-mouse IgG antibody [Perkin-Elmer, product no. AD0077, alternatively a Terbium-cryptate-labeled anti-mouse IgG antibody from Cisbio Bioassays can be used]). The stopped reaction mixture was further incubated 1 h at 22° C. in order to allow the formation of complexes between peptides and detection reagents. Subsequently, the amount of product was evaluated by measurement of the resonance energy transfer from the Eu-chelate-antlbody complex recognizing the Phosphoserlne residue to the streptavidin-XL665 bound to the biotin moiety of the peptide. […] IC50 values were calculated by fitting the normalized inhibition data to a 4-parameter logistic equation (Minimum, Maximum, IC50, Hill; Y=Max+(Min−Max)/(1+(X/IC50)Hill)) using a Bayer-proprietary analysis software.

catalytic domain of human Bub1 (amino acids 704-1085), sequence (O43683 704-1085): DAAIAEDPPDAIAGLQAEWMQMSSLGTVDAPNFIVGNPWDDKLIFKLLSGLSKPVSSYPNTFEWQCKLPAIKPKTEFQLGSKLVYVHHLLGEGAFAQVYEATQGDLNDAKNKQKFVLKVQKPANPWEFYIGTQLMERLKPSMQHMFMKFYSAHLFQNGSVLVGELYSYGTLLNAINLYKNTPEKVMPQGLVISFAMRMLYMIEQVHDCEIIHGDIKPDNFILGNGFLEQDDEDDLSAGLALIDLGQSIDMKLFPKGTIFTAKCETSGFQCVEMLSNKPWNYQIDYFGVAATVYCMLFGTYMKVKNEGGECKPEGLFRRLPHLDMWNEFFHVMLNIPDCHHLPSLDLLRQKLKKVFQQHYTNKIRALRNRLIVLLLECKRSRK

| Structure (SMILES) | IC50 |
| --- | --- |
| CCOc1cc(F)c(Cn2nc(-c3nccc(N(c4ccncc4)C(F)F)n3)c3ccccc32)c(F)c1 [Example 35-1, N-(difluoromethyl)-2-[1-(4-ethoxy-2,6-difluorobenzyl)-1H-indazol-3-yl]-N-(pyridin-4-yl)pyrimidin-4-amine] | 1300 nM |
| CCOc1cc(F)c(Cn2nc(-c3ncc(OC)c(Nc4ccncc4C#N)n3)c3ccccc32)c(F)c1 [Example 24-5, 4-({2-[1-(4-ethoxy-2,6-difluorobenzyl)-1H-indazol-3-yl]-5-methoxypyrimidin-4-yl}amino)pyridine-3-carbonitrile] | 11 nM |
| COc1cnc(-c2nn(Cc3ccc(CC(=O)O)cc3F)c3ccccc23)nc1Nc1ccncc1 [Example 2-22-1, [3-fluoro-4-({3-[5-methoxy-4-(pyridin-4-ylamino)pyrimidin-2-yl]-1H-indazol-1-yl}methyl)phenyl]acetic acid] | 3200 nM |
| OCC1COc2cnc(-c3nn(Cc4ccccc4F)c4ccccc34)nc2N1c1ccncc1 (stereo not shown) [Example 22-1, {2-[1-(2-fluorobenzyl)-1H-indazol-3-yl]-8-(pyridin-4-yl)-7,8-dihydro-6H-pyrimido[5,4-b][1,4]oxazin-7-yl}methanol] | 770 nM |
| COc1cnc(-c2nn(Cc3c(Cl)ccc(C(=O)O)c3Cl)c3ccccc23)nc1Nc1ccncc1 [Example 19-1, 2,4-dichloro-3-({3-[5-methoxy-4-(pyridin-4-ylamino)pyrimidin-2-yl]-1H-indazol-1-yl}methyl)benzoic acid] | 20000 nM |
| COc1cnc(-c2nn(Cc3cccc(-c4noc(C)n4)c3)c3ccccc23)nc1Nc1ccncc1 [Example 2-2-3, 5-methoxy-2-{1-[3-(5-methyl-1,2,4-oxadiazol-3-yl)benzyl]-1H-indazol-3-yl}-N-(pyridin-4-yl)pyrimidin-4-amine] | 25 nM |
| COc1cc(C(F)(F)F)ccc1Cn1nc(-c2ncc(OC)c(Nc3ccncc3)n2)c2ccccc21 [Example 2-47-1, 5-methoxy-2-{1-[2-methoxy-4-(trifluoromethyl)benzyl]-1H-indazol-3-yl}-N-(pyridin-4-yl)pyrimidin-4-amine] | 2400 nM |
| CCOc1cc(F)c(Cn2nc(-c3ncc(OCC4CN(C(=O)OC(C)(C)C)CCO4)c(Nc4ccncc4)n3)c3ccccc32)c(F)c1 (stereo not shown) [Example 4-11, tert-butyl 2-[({2-[1-(4-ethoxy-2,6-difluorobenzyl)-1H-indazol-3-yl]-4-(pyridin-4-ylamino)pyrimidin-5-yl}oxy)methyl] morpholine-4-carboxylate] | 24 nM |
| COc1cnc(-c2nn(Cc3ccccc3F)c3ccccc23)nc1N(c1ccncc1)c1ccncc1 [Example 24-4] | 4280 nM |
| CCOc1ccc(CN(c2ccncc2)c2nc(-c3nn(Cc4ccc(OCC)c(F)c4F)c4ccccc34)ncc2OC)c(F)c1F [Example 2-14-2, N-(4-ethoxy-2,3-difluorobenzyl)-2-[1-(4-ethoxy-2,3-difluorobenzyl)-1H-indazol-3-yl]-5-methoxy-N-(pyridin-4-yl)pyrimidin-4-amine] | 730 nM |
| COC(=O)c1cnccc1Nc1nc(-c2nn(Cc3ccccc3F)c3ccccc23)ncc1OC [Example 24-2, methyl 4-({2-[1-(2-fluorobenzyl)-1H-indazol-3-yl]-5-methoxypyrimidin-4-yl}amino)pyridine-3-carboxylate] | 20000 nM |
| CNC(=O)c1cc(F)c(Cn2nc(-c3ncc(OC)c(Nc4ccncc4)n3)c3ccccc32)c(F)c1 [Example 20-6, 3,5-difluoro-4-({3-[5-methoxy-4-(pyridin-4-yla-mino)pyrimidin-2-yl]-1H-indazol-1-yl}methyl)-N-methylbenzamide] | 6700 nM |
| COc1cnc(-c2nn(Cc3c(Cl)ccc(N)c3Cl)c3ccccc23)nc1Nc1ccncc1 [Example 40-1, 2-[1-(3-amino-2,6-dichlorobenzyl)-1H-indazol-3-yl]-5-methoxy-N-(pyridin-4-yl)pyrimidin-4-amine] | 39 nM |
